Experimental data as given in US8575092B2, “Gelling hydrophobic injectable polymer compositions” (Efrat Biopolymers Ltd., priority 2005, dated 2013).

Tests used:
[1] = test system: S. aureus; experiment: Minimum inhibitory concentration of gentamicin; type: cell-based; conditions: S. aureus used in this study
Description: The minimum inhibitory concentration of gentamicin for the S. aureus used in this study is 2-4 μg/ml. […] No effect was found in these wells: the O.D. was approximately 0.7. In the wells that contained S. aureus in TSB only, O.D. of approximately 0.6 was found. In view of the results of gentamicin release (FIG. 14) and the profound bacterial inhibition by the diluted solutions (FIG. 15), there is probably a significant antibacterial activity in the release medium at an earlier stage.

[2] = mouse
Description: Inbred 8-10 week old female C3H mice, weighing about 20 g (Harlan Laboratories, Israel) were kept under specific pathogen free (SPF) conditions and given free access to irradiated sterile food and acidified water throughout the experiment. Blank polymer and pasty formulations containing paclitaxel (5% and 10% w/w) were injected subcutaneously to the backspace via a 23G needle into 12 groups of four C3H mice in each group. […] After 1, 7, 21 and 70 days, mice were sacrificed by cervical dislocation. The polymer implant was taken out, weighed before and after lyophilization and examined for paclitaxel content in the remaining formulation.

[3] = Solubility of bupivacaine free base in the polymer; type: physicochemical
Description: Bupivacaine free base (5, 7, 10% w/w) was incorporated in the liquid polymers by mixing the drug powder in the polymer at 40° C. and filling 1 ml syringe with this formulation. This formulation is a semi-solid at room temperature and liquid at body temperature. […] The free base bupivacaine formed a clear solution in the polymer while the HCl salt was a fine dispersion.
Bupivacaine was incorporated in the polymer without affecting the polymer molecular weight, as confirmed by GPC. Bupivacaine free base (BFB) is easily soluble in P(SA-RA) up to 15% w/w BFB. The hydrochloride salt dispersed well in the polymer without affecting its viscosity at least up to 15% w/w loading. P(SA-RA) 2:8 and 3:7 formulations containing 5% and 7% of bupivacaine constantly released the drug at a first order profile with about 60% of the incorporated drug was released during 7 days in buffer, formulation containing 10% released approximately 70% of its content during this period. For all experiments, the higher MW polymers (Mw=18,000) release the drug at a slower rate, between 10 and 20% less the amount released at each time point, compared to the low MW polymers (Mw=5,000).

With gentamicin the minimum inhibitory concentration [1] was 2 to 4 µg/mL.
With “Poly(sebacic acid-co-ricinoleic acid ester anhydride) 2:8 [P(SA:RA) (2:8)]” the in vivo degradation [2] was “completely degraded”.
For `CCCCN1CCCCC1C(=O)Nc1c(C)cccc1C` (stereo not drawn) [BFB, Bupivacaine], the “solubility in P(SA-RA)” value [3] was “up to 15 % w/w”.
